Measured values: patent US11873298B2, “Compounds and uses thereof” (JANSSEN PHARMACEUTICA NV, priority 2017, dated 2024)

How the values were obtained:
SCD5 = target: T1, SCD5 (Homo sapiens, UniProt Q86SK9); assay: Growth inhibition of humanized yeast strain expressing SCD5 as sole desaturase; assay type: cell-based
T1 construct: host or cells: S. cerevisiae ole1Δ strain (W303 pdr1Δ pdr3Δ background), plasmid pRS316 with TDH3 promoter and CYC1 terminator
T1 sequence (Q86SK9 1-330): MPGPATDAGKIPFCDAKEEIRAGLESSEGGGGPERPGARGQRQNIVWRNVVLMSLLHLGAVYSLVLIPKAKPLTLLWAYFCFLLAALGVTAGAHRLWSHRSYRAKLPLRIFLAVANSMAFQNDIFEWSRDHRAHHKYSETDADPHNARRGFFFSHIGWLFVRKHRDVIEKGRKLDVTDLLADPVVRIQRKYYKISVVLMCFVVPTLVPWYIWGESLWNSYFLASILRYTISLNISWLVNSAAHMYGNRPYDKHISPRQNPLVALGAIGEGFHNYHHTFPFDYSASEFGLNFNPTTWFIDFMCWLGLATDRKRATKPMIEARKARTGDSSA
Outline: (§1)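 ole1Δ yeast (W303 pdr1Δ pdr3Δ background) carrying plasmid-borne Ole1, SCD1 or SCD5, grown in uracil-free media; cultures pre-grown in raffinose, seeded at 2× density 0.02 in galactose media with compound. Growth read as OD600 after 24 h at 30° C. for Ole1, 40 h for SCD1/SCD5.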

SCD1 = target: T2, SCD1 (Homo sapiens, UniProt O00767); assay: Growth inhibition of humanized yeast strain expressing SCD1 as sole desaturase; assay type: cell-based
T2 construct: host or cells: S. cerevisiae ole1Δ strain (W303 pdr1Δ pdr3Δ background), plasmid pRS316 with TDH3 promoter and CYC1 terminator
T2 sequence (O00767 1-359): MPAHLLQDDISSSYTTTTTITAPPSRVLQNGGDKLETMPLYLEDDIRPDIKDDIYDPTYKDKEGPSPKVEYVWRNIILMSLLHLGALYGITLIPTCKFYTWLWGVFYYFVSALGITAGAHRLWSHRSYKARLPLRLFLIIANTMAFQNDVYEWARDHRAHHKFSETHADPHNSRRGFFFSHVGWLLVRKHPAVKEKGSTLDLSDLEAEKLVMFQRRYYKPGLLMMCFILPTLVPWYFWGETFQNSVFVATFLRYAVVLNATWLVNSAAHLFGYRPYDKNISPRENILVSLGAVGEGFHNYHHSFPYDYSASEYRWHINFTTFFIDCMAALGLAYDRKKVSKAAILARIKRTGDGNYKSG
Outline: as §1

[1] = growth inhibition of humanized yeast strain expressing human SCD5
[2] = growth inhibition of humanized yeast strain expressing human SCD1
[3] = humanized yeast strain expressing SCD5
[4] = humanized yeast strain expressing SCD1

Structure (SMILES) | IC50 (SCD5; humanized yeast strain, 40 h) [µM] | IC50 (SCD1; humanized yeast strain, 40 h) [µM] | also measured
CN1CC2CN(c3nc(-c4ccc5cn(C6COC6)nc5c4)no3)CCN2C1=O (centres unmarked) [Compound 1143] | > 45 | > 45 | 
O=C(CC1CC1)N1CCCN(c2noc(-c3ccc4cnn(C5COC5)c4c3)n2)CC1 [Compound 965] | 0.01 | > 45 | 
CC(C)n1ncc2ccc(-c3noc(C4(O)CCN(C(=O)OC(C)(C)C)CC4)n3)cc21 [Compound 832] | 11.6 | > 45 | 
CC(C)C(=O)N1CCC(c2nc(-c3ccnc(F)c3)no2)CC1 [Compound 1124] | > 45 | > 45 | 
COC1(C(=O)N2CCC(c3noc(-c4ccc5cnn(C6COC6)c5c4)n3)CC2)CC1 [Compound 902] | 0.01 | > 45 | 
O=C(N1CCC(c2noc(-c3ccc4oc(=O)n(C5COC5)c4c3)n2)CC1)C1(F)CC1 [Compound 1131] | 0.207 | > 45 | 
C[C@@H]1C[C@@H](c2noc(-c3ccc4cnn(C5COC5)c4c3)n2)CCN1C(=O)C1CCC1 [Compound 1066] | 0.000681 | > 45 | 
CC(C)(C)OC(=O)N1CCN(c2noc(-c3cccc(C4CCOC4)c3)n2)CC1 (centres unmarked) [Compound 778] | 0.012 | > 45 | 
O=C(C1CC1)N1CCC(c2noc(-c3cc(F)c4cnn(C5COC5)c4c3)n2)CC1 [Compound 1067] | 0.00498 | > 45 | 
CC(C)c1ncn2ccc(-c3noc(C4CCN(C(=O)OC(C)(C)C)CC4)n3)cc12 [Compound 866] | 4.61 | > 45 | 
Cc1nn(C)c2cc(-c3nc(C4CCN(S(=O)(=O)C5CC5)CC4)no3)ccc12 [Compound 922] | 6.56 | > 45 | 
C[C@H](NC(=O)[C@H]1[C@@H]2CN(C(=O)OC(C)(C)C)C[C@@H]21)c1ccccc1 [Compound 769] | > 45 | > 45 | 
Clc1cnc2n1CCN(c1noc(-c3ccc4cn[nH]c4c3)n1)C2 [Compound 904] | 7.62 | > 45 | 
Cc1nn(C)c2cc(-c3noc(N4CCN(C(=O)OC5(C)CC5)CC4)n3)ccc12 [Compound 613] |  |  | IC50 (SCD5; [1]): > 45 µM; IC50 (SCD1; [2]): > 45 µM
CNC(=O)OC1CCC(c2nc(-c3ccc4cnn(C(C)C)c4c3)no2)CC1 (centres unmarked) [Compound 608] |  |  | IC50 (SCD5; [1]): > 45 µM; IC50 (SCD1; [2]): > 45 µM
CC(C)(C)OC(=O)N1CCC(c2noc(-c3cncc(C4CCOC4)c3)n2)CC1 (centres unmarked) [Compound 1190] | 0.06 | > 45 | 
CC(C)(C)OC(=O)N1CCC(c2noc(-c3cnc4cnn(C5COC5)c4c3)n2)CC1 [Compound 1047] | 0.01 | ≥ 45 | 
O=C(C1CCC1)N1CCN(c2noc(-c3ccc4cnn(C5COC5)c4c3)n2)CC1 [Compound 838] | 0.021 | > 45 | 
CC(C)(C)OC(=O)N1CCC(c2noc(-c3cc4c(Cl)nccn4c3)n2)CC1 [Compound 882] | 1.91 | 6.56 | 
O=C(C1CC1)N1CCC(c2nc(-c3ccnc(F)c3)no2)CC1 [Compound 1128] | > 45 | > 45 | 
Cc1nn(C)c2cc(-c3noc(C4CCN(C(=O)CN)CC4(F)F)n3)ccc12 (centres unmarked) [Compound 512] |  |  | IC50 (SCD5; [3]): > 45 µM; IC50 (SCD1; [4]): > 45 µM
COC(=O)N1CCC(c2noc(-c3cc(C)c4cnn(C5COC5)c4c3)n2)CC1 [Compound 1070] | 0.081 | > 45 | 
O=C(C1CC1)N1CCN(c2noc(-c3ccnc(Cl)c3)n2)CC1 [Compound 1118] | > 45 | > 45 | 
CC(C)c1noc2ccc(-c3noc(C4CCN(C(=O)C5CCC5)CC4)n3)cc12 [Compound 968] | 2.83 | > 45 | 
O=C(N1CCC(c2cc(-c3cc4c(cn3)cnn4C3COC3)on2)CC1)C1(F)CC1 [Compound 1110] | 0.01 | > 45 | 
CC(C)n1ncc2ccc(-c3nc(N4CCN(C(=O)CC5CC5)CC4)no3)cc21 [Compound 874] | 0.05 | > 45 | 
Cc1nn(C)c2cc(-c3noc(C4CCN(C(=O)OC(C)(C)C)CC4(F)F)n3)ccc12 (centres unmarked) [Compound 504] |  |  | IC50 (SCD5; [3]): 14.8 µM; IC50 (SCD1; [4]): > 45 µM
COC1(C(=O)N2CCN(c3noc(-c4ccc5cnn(C(C)C)c5c4)n3)CC2)CC1 [Compound 889] | 1.9 | 13.3 | 
